Reference: ChEMBL document CHEMBL1201862, “PubChem BioAssay data set” (2004)
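Growth conditions: 96-well plates. Treatment: test compound, 48 hours, 5 concentrations. Analysis: linear interpolation between bracketing concentrations; unreached endpoints set to highest concentration. The concentration for 50% growth inhibition is given as GI50.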 Activity calls are given as the source filed them. Cut-off read from the data, not from the text of the source: active = GI50 up to about 1.1 µM and inactive = higher.

Assays:
Assay in all cases: growth of human tumour cells (NCI), 48 h
[1] = system: SN12C
[2] = system: EKVX
[3] = system: HOP-62
[4] = system: SF-295
[5] = system: MOLT-4
[6] = system: UACC-62
[7] = system: HOP-18
[8] = system: SK-OV-3
[9] = system: HT-29
[10] = system: SNB-19
[11] = system: OVCAR-4
[12] = system: NCI-H522
[13] = system: CAKI-1
[14] = system: XF498
[15] = system: LXFL 529
[16] = system: COLO 205
[17] = system: A549
[18] = system: M14
[19] = system: HCT-116
[20] = system: UO-31
[21] = system: HCT-15
[22] = system: HCC 2998
[23] = system: SNB-78
[24] = system: NCI-H23
[25] = system: SF-268
[26] = system: 786-0
[27] = system: NCI-H460
[28] = system: RPMI-8226
[29] = system: SF-539
[30] = system: LOX IMVI
[31] = system: K562
[32] = system: OVCAR-8
[33] = system: ACHN
[34] = system: SR
[35] = system: KM-20L2
[36] = system: CCRF-CEM
[37] = system: IGROV-1
[38] = system: DLD-1
[39] = system: KM12
[40] = system: HL-60
[41] = system: M19-MEL
[42] = system: RXF 393
[43] = system: SK-MEL-5
[44] = system: U-251
[45] = system: SW-620
[46] = system: OVCAR-5
[47] = system: SK-MEL-28
[48] = system: Malme-3M
[49] = system: SK-MEL-2
[50] = system: NCI-H226
[51] = system: OVCAR-3
[52] = system: UACC-257
[53] = system: SNB-75
[54] = system: DMS-273
[55] = system: TK-10
[56] = system: DMS-114
[57] = system: HOP-92

For `CSC1=Nc2ccccc2N=C(c2ccc(Cl)cc2)C1`, the GI50 [1] was 40.5 µM (inactive), the GI50 [2] was 20.5 µM (inactive) and the GI50 [3] was > 100 µM (inactive). For the same compound, the GI50 [4] was 43.9 µM (inactive), the GI50 [5] was 21.7 µM (inactive) and the GI50 [6] was 42.8 µM (inactive). The GI50 [7] was 87.7 nM (active), the GI50 [8] was 73.3 µM (inactive) and the GI50 [9] was 23 µM (inactive). For the same compound, the GI50 [10] was > 100 µM (inactive), the GI50 [11] was > 100 µM (inactive) and the GI50 [12] was 43.1 µM (inactive). The GI50 [13] was 22 µM (inactive), the GI50 [14] was 36.5 µM (inactive) and the GI50 [15] was 45 µM (inactive). For the same compound, the GI50 [16] was 59.6 µM (inactive), the GI50 [17] was 43.8 µM (inactive) and the GI50 [18] was 36.1 µM (inactive). The GI50 [19] was 26.5 µM (inactive), the GI50 [20] was 24.5 µM (inactive) and the GI50 [21] was 26.9 µM. The GI50 [22] was > 10 µM (inactive), the GI50 [23] was 52.5 µM (inactive) and the GI50 [24] was 31.7 µM (inactive). The GI50 [25] was 42.3 µM (inactive), the GI50 [26] was 30.3 µM (inactive) and the GI50 [27] was 40.2 µM (inactive). The GI50 [28] was 33.4 µM (inactive), the GI50 [29] was 40 µM (inactive) and the GI50 [30] was 27.1 µM (inactive). The GI50 [31] was 34.8 µM (inactive), the GI50 [32] was 52.7 µM (inactive) and the GI50 [33] was 36.6 µM (inactive). The GI50 [34] was 32.1 µM (inactive), the GI50 [35] was 35.5 µM (inactive) and the GI50 [36] was 27.9 µM (inactive). The GI50 [37] was 22.8 µM (inactive), the GI50 [38] was 25.9 µM (inactive) and the GI50 [39] was 36.8 µM (inactive). The GI50 [40] was 35.3 µM (inactive), the GI50 [41] was 36.3 µM (inactive) and the GI50 [42] was 20.4 µM (inactive). The GI50 [43] was 24.2 µM (inactive), the GI50 [44] was 33.4 µM (inactive) and the GI50 [45] was 39.1 µM (inactive). For the same compound, the GI50 [46] was 27.8 µM (inactive), the GI50 [47] was 42 µM (inactive) and the GI50 [48] was 35.2 µM (inactive). The GI50 [49] was 25.4 µM (inactive), the GI50 [50] was > 100 µM (inactive) and the GI50 [51] was 33.3 µM (inactive). For the same compound, the GI50 [52] was 27.7 µM (inactive).
With `CC1=NN(C(=O)CC(=O)Nc2ccccc2F)C(=O)C1/N=N/c1ccccc1[N+](=O)[O-]` (stereo not drawn) the GI50 [1] was > 100 µM (inactive), the GI50 [2] was 26.5 µM (inactive) and the GI50 [53] was > 100 µM (inactive). The GI50 [3] was > 100 µM (inactive), the GI50 [54] was 49.9 µM (inactive) and the GI50 [4] was > 100 µM (inactive). For the same compound, the GI50 [5] was 73.8 µM (inactive), the GI50 [6] was 26.2 µM (inactive) and the GI50 [8] was > 100 µM (inactive). For the same compound, the GI50 [9] was > 100 µM (inactive), the GI50 [10] was > 100 µM (inactive) and the GI50 [11] was 70.6 µM (inactive). For the same compound, the GI50 [12] was 51.8 µM (inactive), the GI50 [13] was 75.5 µM (inactive) and the GI50 [14] was > 100 µM (inactive). The GI50 [15] was > 100 µM (inactive), the GI50 [16] was > 100 µM (inactive) and the GI50 [17] was 64.7 µM (inactive). The GI50 [18] was > 100 µM (inactive), the GI50 [19] was > 100 µM (inactive) and the GI50 [20] was 81.1 µM (inactive). For the same compound, the GI50 [21] was greater than 100 µM, the GI50 [23] was 87.3 µM (inactive) and the GI50 [24] was 94.6 µM (inactive). The GI50 [25] was > 100 µM (inactive), the GI50 [26] was > 100 µM (inactive) and the GI50 [55] was > 100 µM (inactive). The GI50 [28] was > 100 µM (inactive), the GI50 [29] was 58.7 µM (inactive) and the GI50 [31] was > 100 µM (inactive). The GI50 [32] was 58.5 µM (inactive), the GI50 [56] was 57.9 µM (inactive) and the GI50 [35] was > 100 µM (inactive). For the same compound, the GI50 [36] was 79.6 µM (inactive), the GI50 [37] was > 100 µM (inactive) and the GI50 [38] was 83 µM (inactive). The GI50 [39] was > 100 µM (inactive), the GI50 [41] was 18.7 µM (inactive) and the GI50 [42] was 45.1 µM (inactive). The GI50 [43] was 17.9 µM (inactive), the GI50 [44] was > 100 µM (inactive) and the GI50 [45] was > 100 µM (inactive). For the same compound, the GI50 [46] was > 100 µM (inactive), the GI50 [47] was > 100 µM (inactive) and the GI50 [48] was > 100 µM (inactive). For the same compound, the GI50 [49] was > 100 µM (inactive), the GI50 [50] was > 100 µM (inactive) and the GI50 [51] was 96.4 µM (inactive). The GI50 [52] was 97.3 µM (inactive).
For `Brc1c2nc3ccccc3nc2n2ccc3ccccc3c12`, the GI50 [1] was > 100 µM (inactive), the GI50 [2] was > 100 µM (inactive) and the GI50 [53] was > 100 µM (inactive). For the same compound, the GI50 [3] was > 100 µM (inactive), the GI50 [54] was > 100 µM (inactive) and the GI50 [5] was > 100 µM (inactive). For the same compound, the GI50 [6] was > 100 µM (inactive), the GI50 [8] was 2.23 µM (inactive) and the GI50 [10] was > 100 µM (inactive). The GI50 [11] was > 100 µM (inactive), the GI50 [12] was 69.5 µM (inactive) and the GI50 [57] was > 100 µM (inactive). The GI50 [13] was > 100 µM (inactive), the GI50 [14] was > 100 µM (inactive) and the GI50 [15] was > 100 µM (inactive). For the same compound, the GI50 [16] was > 100 µM (inactive), the GI50 [17] was > 100 µM (inactive) and the GI50 [18] was > 100 µM (inactive). The GI50 [19] was > 100 µM (inactive), the GI50 [20] was > 100 µM (inactive) and the GI50 [21] was greater than 100 µM. For the same compound, the GI50 [22] was > 100 µM (inactive), the GI50 [23] was > 100 µM (inactive) and the GI50 [24] was > 100 µM (inactive). The GI50 [25] was > 100 µM (inactive), the GI50 [26] was > 100 µM (inactive) and the GI50 [27] was > 100 µM (inactive). The GI50 [55] was > 100 µM (inactive), the GI50 [28] was > 100 µM (inactive) and the GI50 [29] was > 100 µM (inactive). For the same compound, the GI50 [30] was > 100 µM (inactive), the GI50 [31] was > 100 µM (inactive) and the GI50 [32] was > 100 µM (inactive). The GI50 [56] was > 100 µM (inactive), the GI50 [33] was > 100 µM (inactive) and the GI50 [34] was > 100 µM (inactive). The GI50 [35] was > 100 µM (inactive), the GI50 [36] was > 100 µM (inactive) and the GI50 [37] was 47.6 µM (inactive). The GI50 [38] was > 100 µM (inactive), the GI50 [39] was > 100 µM (inactive) and the GI50 [40] was > 100 µM (inactive). For the same compound, the GI50 [41] was > 100 µM (inactive), the GI50 [43] was > 100 µM (inactive) and the GI50 [44] was > 100 µM (inactive). The GI50 [45] was > 100 µM (inactive), the GI50 [46] was > 100 µM (inactive) and the GI50 [47] was > 100 µM (inactive). The GI50 [48] was > 100 µM (inactive), the GI50 [49] was > 100 µM (inactive) and the GI50 [51] was > 100 µM (inactive). For the same compound, the GI50 [52] was > 100 µM (inactive).
